Where “and” joins values, the source holds several entries; their conditions need not be identical. Equal entries are not always repeated. Where two headings read alike, the source gives them in different places.
Tests used:
[1] = molecular target: T1, TLX ligand binding domain (Homo sapiens, UniProt Q9Y466); experiment: TLX ligand sensing assay (AlphaScreen, RIP140 NR box peptide recruitment); format: biochemical; settings: for TLX max. efficacy: oleic acid = 100
T1 construct: purchased NovAliX SAS, Strasbourg, France

[2] = Metabolic stability / intrinsic clearance in cryopreserved human hepatocytes; settings: for hepatocyte CLint at 1 µM / half-life at 1 µM: human
Protocol: To gain insight into potential metabolic issues, a preliminary assessment of 1-E and 3-C in a metabolic stability assay utilizing human hepatocytes was conducted.
7.1. ADME-Tox: In Vitro Metabolism
Intrinsic clearance (cr yopreserved hepatocytes, human)
Note: Unit of Clint is µ L/min/mg for microsomes, S9 and UGT assa ys; µL/min/pmol for CYP assays; µ L/min/Million cells for hepatocyte assays […]
8.1. Experimental Conditions
8.1.1. ADME-Tox: In Vitro Metabolism
8.2. Analysis and expression of results
8.2.1. ADME-Tox: In Vitro Metabolism
Intrinsic Clearance (microsomes, S9, cryopreserved hepatocytes, reco mbinant CYP, recombinant UGT) Metabolic stability, expressed as percent of the parent compound remaining , was calculated by comparing the peak area of the compound at the time point relative to that at time -0. The ha lf-life (T1/2) was estimated from the slope of the initial linear range of the logarithmic curve of compound remaining (%) vs. time, assu ming the first -order kinetics. The apparent intrinsic cleara nce (CLint, in µL/min/pmol, µL/min/mg or µL/min/Mcell ) was calculated according to the following formula: […]
T1/2*(mg protein/µL or million cells/µL or pmol CYP iso zyme/µL)

[3] = molecular target: T2, GPR120 (Homo sapiens, UniProt Q5NUL3); experiment: PathHunter β-arrestin assay (Eurofins Discovery), GPR120; format: cell-based
T2 sequence (Q5NUL3 1-361): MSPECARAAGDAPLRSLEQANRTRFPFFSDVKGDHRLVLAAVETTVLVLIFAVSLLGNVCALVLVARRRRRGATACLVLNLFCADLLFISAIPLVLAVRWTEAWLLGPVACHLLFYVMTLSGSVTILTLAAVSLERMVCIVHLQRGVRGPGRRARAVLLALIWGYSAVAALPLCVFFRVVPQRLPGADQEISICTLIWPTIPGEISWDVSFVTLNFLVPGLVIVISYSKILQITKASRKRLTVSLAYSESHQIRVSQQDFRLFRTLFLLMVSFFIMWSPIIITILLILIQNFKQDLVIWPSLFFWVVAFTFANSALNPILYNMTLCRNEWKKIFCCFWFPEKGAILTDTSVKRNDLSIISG
Protocol: (§1) With these compounds in hand, attention was directed at evaluating their properties as ligands to GPR40, GPR120,[24] and TLX. Initial profiling experiments were conducted targeting the GPCR targets at a single concentration (15 μM) in a commercially available β-arrestin assay.
(§2) Functional assays at GPR40 and GPR120 were conducted by Eurofins Discovery services using their PathHunter® b-Arrestin assay that monitors the activation of a GPCR in a homogenous, non-imaging assay format using a technology developed by DiscoverX called Enzyme Fragment Complementation (EFC) with b-galactosidase (b-Gal) as the functional reporter. b-Arrestin GPCR cell lines built on the principles of EFC are engineered to co-express the ProLinkTM (PK) tagged GPCR and the Enzyme Acceptor (EA) tagged b-Arrestin. Activation of the GPCR-PK induces b-Arrestin-EA recruitment, forcing complementation of the two b-galactosidase enzyme fragments (EA and PK). The resulting functional enzyme hydrolyzes substrate to generate chemiluminescent […]
(§3) Additional information can be found at: www.eurofinsdiscovery.com/solution/b-arrestin Below are dose-response curves generated from Eurofins Discovery services for activity of ligands depicted in Figure 6B at GPR40 (FFAR1) and GPR120. […]

[4] = molecular target: GPR40 (FFAR1) (Homo sapiens, UniProt O14842); experiment: PathHunter β-arrestin assay (Eurofins Discovery), GPR40; format: cell-based
Protocol: as §1, §2, §3

[5] = test system: GPR40; settings: GW9508; read-out: GPR40 EC50 historical; cited from earlier work
[6] = ALPHA normalized, supplement, read-out: TLX EC50 (dose-response curves)
[7] = coactivator recruitment, read-out: TLX EC50
[8] = cryopreserved human hepatocytes
[9] = cryopreserved human hepatocytes, Half-life (mean), human hepatocytes, 1.0E-06 M
[10] = cryopreserved human hepatocytes, Half-life, single replicates (1st, 2nd, 3rd), human hepatocytes, 1.0E-06 M
[11] = dose-response, oleic acid = 100

T1 sequence (Q9Y466 155-383 limits assumed): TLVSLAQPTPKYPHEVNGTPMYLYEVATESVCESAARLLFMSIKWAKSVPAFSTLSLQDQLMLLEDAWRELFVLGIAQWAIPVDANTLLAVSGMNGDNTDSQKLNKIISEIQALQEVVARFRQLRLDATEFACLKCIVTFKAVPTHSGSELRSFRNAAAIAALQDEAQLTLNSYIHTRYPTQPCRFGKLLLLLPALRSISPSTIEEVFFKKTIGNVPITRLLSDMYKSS
Sequence of GPR40 (FFAR1) (O14842 whole entry): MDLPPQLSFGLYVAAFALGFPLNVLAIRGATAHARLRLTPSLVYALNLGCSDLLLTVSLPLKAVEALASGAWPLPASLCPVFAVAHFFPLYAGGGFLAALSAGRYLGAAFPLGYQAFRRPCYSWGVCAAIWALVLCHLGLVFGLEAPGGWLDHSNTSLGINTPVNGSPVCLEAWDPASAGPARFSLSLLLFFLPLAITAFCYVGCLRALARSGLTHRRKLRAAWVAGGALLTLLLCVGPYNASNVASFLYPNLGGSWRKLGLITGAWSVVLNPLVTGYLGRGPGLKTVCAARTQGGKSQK

CCCCC[C@@H](C)/C=C(/C)C/C(C)=C/[C@H](C)CCCCCC(=O)O [3-C]
EC50 [1, 6]: 818 nM
EC50 [1, 7]: 800 nM
TLX max. efficacy [1]: 66%
Half-life, single replicates (1st, 2nd, 3rd) ([2]; human hepatocytes, 1.0E-06 M, listed as GCM/LEM 3-C): 1.862 h and 1.848 h
hepatocyte CLint at 1 µM [2, 8]: 8.7 µL/min/1e6 cells
half-life at 1 µM [2, 9]: 1.9 h
half-life at 1 µM [2, 10]: 1.97 h
% Compound Remaining, mean ([2]; incubation 30 minutes, 1.0E-06 M): 96 % remaining
% Compound Remaining, single replicates (1st, 2nd, 3rd) ([2]; incubation 30 minutes, 1.0E-06 M, listed as GCM/LEM 3-C): 97.3 % remaining and 95.1 % remaining and 96.7 % remaining
% Compound Remaining, mean ([2]; incubation 60 minutes, 1.0E-06 M): 75 % remaining
% Compound Remaining, single replicates (1st, 2nd, 3rd) ([2]; incubation 60 minutes, 1.0E-06 M, listed as GCM/LEM 3-C): 72.5 % remaining and 71.7 % remaining and 79.8 % remaining
% Compound Remaining, mean ([2]; incubation 90 minutes, 1.0E-06 M): 57 % remaining
% Compound Remaining, single replicates (1st, 2nd, 3rd) ([2]; incubation 90 minutes, 1.0E-06 M, listed as GCM/LEM 3-C): 59.1 % remaining and 54.4 % remaining and 53.2 % remaining
% Compound Remaining, mean ([2]; incubation 120 minutes, 1.0E-06 M): 51 % remaining
% Compound Remaining, single replicates (1st, 2nd, 3rd) ([2]; incubation 120 minutes, 1.0E-06 M, listed as GCM/LEM 3-C): 53.3 % remaining and 52.1 % remaining and 48.9 % remaining

CCCCC[C@@H](C)/C=C(/C)C/C(C)=C/[C@@H](C)CCCCCC(=O)O [3-D]
EC50 [1, 6]: 1170 nM

CCCCC[C@H](C)/C=C(/C)C/C(C)=C/[C@H](C)CCCCCC(=O)O [3-E]
EC50 [1, 6]: 959 nM

CCCCC[C@H](C)/C=C(/C)C/C(C)=C/[C@@H](C)CCCCCC(=O)O [3-F]
EC50 [1, 6]: 892 nM
EC50 [1, 7]: 900 nM
TLX max. efficacy [1]: 71%

CCCC/C=C(/C)C/C(C)=C/[C@H](C)CCCCCCCC(=O)O [4-A]
EC50 [1, 6]: 1520 nM

CCCC/C=C(/C)C/C(C)=C/[C@@H](C)CCCCCCCC(=O)O [4-B]
EC50 [1, 6]: 2970 nM

CCC[C@@H](C)/C=C(/C)C/C(C)=C/[C@H](C)CCCCCCCC(=O)O [4-C]
EC50 [1, 6]: 1530 nM
activity against GPR120 ([3]; from Figure 6A, 15 μM): inactive

CCC[C@@H](C)/C=C(/C)C/C(C)=C/[C@@H](C)CCCCCCCC(=O)O [4-D]
EC50 [1, 6]: 1570 nM

CCC[C@H](C)/C=C(/C)C/C(C)=C/[C@H](C)CCCCCCCC(=O)O [4-E]
EC50 [1, 6]: 1320 nM

CCC[C@H](C)/C=C(/C)C/C(C)=C/[C@@H](C)CCCCCCCC(=O)O [4-F]
EC50 [1, 6]: 1890 nM

CCN(CC)CCN1C(=O)CN=C(c2ccccc2F)c2cc(Cl)ccc21 [Flurazepam, reference compound]
Half-life, single replicates (1st, 2nd, 3rd) ([2]; human hepatocytes, 1.0E-06 M): 0.797 h and 0.895 h
hepatocyte CLint at 1 µM ([2]; hepatocytes): 19.3 µL/min/1e6 cells
half-life at 1 µM ([2]; hepatocytes, Half-life (mean), human hepatocytes, 1.0E-06 M): 0.85 h
half-life at 1 µM ([2]; hepatocytes, Half-life, single replicates (1st, 2nd, 3rd), human hepatocytes, 1.0E-06 M): 0.882 h

O=C(O)CCc1ccc(NCc2cccc(Oc3ccccc3)c2)cc1 [GW9508, reference compound]
EC50 ([4]; dose-response, β-arrestin assay, read-out: GPR40 EC50 measured): 1000 nM
GPR40 max. efficacy [4, 11]: 229%
EC50 ([4]; three independent assays behind the average, read-out: GPR40 EC50, independent assays): 1500 nM and 980 nM and 700 nM
GPR120 max. efficacy [3, 11]: 87%
EC50 [5]: 47 nM

O=c1cc(C(F)(F)F)c2ccc(O)cc2o1 [HFC, reference compound]
CLint ([2]; human hepatocytes, 1.0E-06 M): 47.3 μL/min/million cells
Half-life (mean) ([2]; human hepatocytes, 1.0E-06 M): 0.35 h
Half-life, single replicates (1st, 2nd, 3rd) ([2]; human hepatocytes, 1.0E-06 M): 0.348 h and 0.352 h and 0.347 h

C=CCN1CC[C@]23c4c5ccc(O)c4O[C@H]2C(=O)CC[C@@]3(O)[C@H]1C5 [Naloxone, reference compound]
Half-life, single replicates (1st, 2nd, 3rd) ([2]; human hepatocytes, 1.0E-06 M): 1.47 h and 1.852 h
hepatocyte CLint at 1 µM [2, 8]: 10.1 µL/min/1e6 cells
half-life at 1 µM [2, 9]: 1.65 h
half-life at 1 µM [2, 10]: 1.61 h

CC(C)NCC(O)COc1cccc2ccccc12 (stereo not drawn) [Propanolol, Propranolol, reference compound]
half-life at 1 µM [2, 9]: 3.12 h
half-life at 1 µM [2, 10]: 3.25 h

— PMC10906247, “From Functional Fatty Acids to Potent and Selective Natural-Product-Inspired Mimetics via Conformational Profiling” (ACS Central Science, 2024)
